The text below walks through data of PMC11111895, “Identification of a dCache-type chemoreceptor in Campylobacter jejuni that specifically mediates chemotaxis towards methyl pyruvate” (Frontiers in Microbiology, 2024).

Assay [1] has as its system Tlp11-LBD. Further details: method as in Day et al., 2016. Particulars: ref Day et al., 2016; cited from earlier work.
The target in assay [2] is Tlp11-LBD. The experiment in a line: Microscale thermophoresis (MST) of Tlp11-LBD. It is filed as binding, C. jejuni ATCC 33560. Particulars: for Kd: 250 nM protein. The method, then:
The His-tag dye (MO-L018 RED-tris-NTA, NanoTemper, Germany) was adjusted to a final concentration of 25 nM and used to label the purified protein with a His-tag. The compound was diluted to a series of concentrations in phosphate-buffered saline ([Duan et al., 2023]) with 0.05% Tween 20 (PBS-T) buffer and mixed in a ratio of 1:1 with protein. The mixtures were loaded into capillaries (Monolith™ Series capillaries, NanoTemper) by means of capillary action. Thermophoresis was measured using a Monolith™ NT.115 (NanoTemper) instrument, with 40% excitation and 40% MST power configuration. The time-traces of changes in fluorescence, which reflected the thermophoretic movement of labeled protein affected by different concentrations of compound were recorded, and the dose–response curves were fitted with the ‘temperature jump and thermophoresis’ mode. Data analysis was performed using MO. Affinity Analysis version 2.3 (NanoTemper) and Prism version 8.0.2 (GraphPad Software, United States).
MST quantifies interaction affinities by detecting the direct movement of fluorescent molecules along temperature gradients in capillaries. Ligand binding changes the thermophoretic movement of proteins, which can be used to derive Kds, by sequentially scanning capillaries with different ligand concentrations. MST has been applied to the study of weak binding systems and validated to provide reliable results ([Linke et al., 2016]; [Gao et al., 2021]). […] We also tested the binding abilities of methyl pyruvate analogues to Tlp11-LBD using MST (Supplementary Table S3).

The subject of assay [3] is C. jejuni NCTC 11168ΩTlp11 cells. It is filed as cell-based, Campylobacter jejuni.
In assay [4] the test system is C. jejuni WT NCTC 11168 cells. It is filed as cell-based, Campylobacter jejuni.
Assay [5] relates to Tlp11[1-342]-Tar[200-553] (Tlp342Tar200). The experiment in a line: Microfluidic chemotaxis of E. coli expressing hybrid chemoreceptor Tlp342Tar200. It is filed as cell-based, E. coli VS188. The settings on record: for effect on chemotaxis towards methyl pyruvate of E. coli with Tlp342Tar200 / effect on responses to glucose of E. coli with Tlp342Tar200: cells incubated in 10 mM compound; for chemotactic response of E. coli expressing Tlp342Tar200 as the sole receptor: microfluidic device, 50 min. The method, then:
The E. coli cells expressing hybrid chemoreceptor and GFP were grown in tryptone broth, up to an OD600 of 0.55, at 34°C, with shaking at 250 rpm. The cells were harvested by means of centrifugation at 5,000 rpm, washed twice with Tethering Buffer (10 mM KH2PO4, 10 mM K2HPO4, and 0.1 mM EDTA, pH 7.0), and resuspended in Tethering Buffer such that an OD600 of 5.5 was attained. The chemotactic responses of E. coli cells to the compounds were measured using a microfluidic device ([Si et al., 2012]). The collected E. coli cells were added to the sink pores of the device and allowed to freely diffuse into the observation channel for 40 min. Subsequently, the compound solution was added to the source pores, to establish a concentration gradient gradually in the observation channel of the device. Fluorescence intensity in the observation channel was detected using an LSM 800 laser scanning confocal microscope (Zeiss, Germany). Data were analyzed using ImageJ software.
To determine whether methyl pyruvate stimulates transmembrane signaling through Tlp11-LBD, we fused C. jejuni ATCC 33560 Tlp11-LBD with the cytoplasmic region of the E. coli chemoreceptor Tar to construct Tlp11-Tar hybrid chemoreceptors (Figure 3A). Five hybrid receptors with different fusion positions in the second transmembrane helix (TM2) were obtained: Tlp11[1-342]-Tar[200-553] (Tlp342Tar200), Tlp11[1-343]-Tar[200-553] (Tlp343Tar200), Tlp11[1-346]-Tar[204-553] (Tlp346Tar204), Tlp11[1-347]-Tar[204-553] (Tlp347Tar204), and Tlp11[1-348]-Tar[204-553] (Tlp348Tar204) (Supplementary Figure S5A). To verify the activities of these hybrid chemoreceptors, we expressed each protein as a chimera in green fluorescent protein (GFP)-labeled E. coli VS188 without any other chemoreceptors, such that each hybrid receptor served as the only chemoreceptor in the E. coli. […] These chemotactic responses triggered by glucose through the phosphotransferase system are independent of the chemoreceptor LBD ([Neumann et al., 2012]). […] Thus, we used this hybrid receptor for subsequent chemotaxis measurements.

The subject of another assay is C. jejuni ATCC 33560. The experiment in a line: Growth curves in Minimal Essential Medium. It is filed as cell-based, Campylobacter jejuni. Particulars: Minimal Essential Medium with fetal bovine serum, shaking; methyl pyruvate at concentrations above 1 mM. The method, then: The C. jejuni ATCC 33560, C. jejuni WT NCTC 11168 and 11168ΩTlp11 cells were grown on a MH agar plate overnight, at 37°C, under microaerobic conditions. The colonies were suspended in PBS ([Duan et al., 2023]), pH 7.2, inoculated into Minimal Essential Medium broth (Life Technologies) containing 10% fetal bovine serum to an initial OD600 of 0.01, and grown at 37°C, 100 rpm, under microaerobic conditions. When required, Minimal Essential Medium was supplemented with different concentrations of methyl pyruvate or pyruvate (both from Macklin, China).

The subject of the next assay is H. pylori. Details: method as in Matilla and Krell, 2023; Zhou et al., 2023. The settings on record: increase from 25 upon combination with amoxicillin and clarithromycin, clinical studies, ref Matilla and Krell, 2023, Zhou et al.; cited from earlier work.
The test system of assay [6] is C. jejuni 11168ΩTlp11/ΔCheY. It is filed as cell-based, Campylobacter jejuni.
The mark [7] stands for this setting: methyl pyruvate at pH 7.0, read-out: Kd of Tlp11-LBD binding.

Read-outs that look alike come from different tables or passages of the source.

`O=C[C@H](O)[C@@H](O)[C@@H](O)[C@H](O)CO` [galactose]: the “binding to Tlp11-LBD” value in the assay on Tlp11-LBD [1] was “bound directly”.

With `c1ccc2ncccc2c1` [quinoline, Quinoline], the Kd at Tlp11-LBD [2] (setting [7]) was determined as 905 ± 180 µM. The chemotactic response result in assay [3] is given as “neither WT NCTC 11168 nor 11168ΩTlp11 cells exhibited chemotaxis”. Moreover, the chemotactic response entry in assay [4] is on record as “neither WT NCTC 11168 nor 11168ΩTlp11 cells exhibited chemotaxis”. In assay [5], the “effect on chemotaxis towards methyl pyruvate of E. coli with Tlp342Tar200” value is recorded as “lost the chemotaxis towards methyl pyruvate”, the “effect on responses to glucose of E. coli with Tlp342Tar200” value is given as “not affected” and the “chemotactic response of E. coli expressing Tlp342Tar200 as the sole receptor” value is reported as “failed to elicit a chemotactic response”.

Consider `Cc1ccccc1` [toluene, Toluene], for which, at Tlp11-LBD [2] (setting [7]), the equilibrium dissociation constant (Kd) worked out at 844 ± 172 µM. In assay [3] (11168ΩTlp11 cells, microfluidic device, 30 min), the chemotactic response result is “neither WT NCTC 11168 nor 11168ΩTlp11 cells exhibited chemotaxis”. Moreover, the chemotactic response entry in assay [4] (WT NCTC 11168 cells, microfluidic device, 30 min) was “neither WT NCTC 11168 nor 11168ΩTlp11 cells exhibited chemotaxis”. In assay [5], the “effect on chemotaxis towards methyl pyruvate of E. coli with Tlp342Tar200” value is “lost the chemotaxis towards methyl pyruvate”, the “effect on responses to glucose of E. coli with Tlp342Tar200” value is “not affected” and the “chemotactic response of E. coli expressing Tlp342Tar200 as the sole receptor” value is listed as “failed to elicit a chemotactic response”.

Regarding `CC(=O)C(=O)O` [pyruvate, Pyruvate], the “binding to Tlp11-LBD” value in the assay with Tlp11-LBD [2] (maximum concentration 2.5 mM) was “did not bind”. Also, the “effect on growth of C. jejuni ATCC 33560” value with C. jejuni ATCC 33560 was “promotion of the growth”.

`COc1ccc2[nH]c([S+]([O-])Cc3ncc(C)c(OC)c3C)nc2c1` (centres unmarked) [omeprazole]: the “eradication rate of H. pylori” value with H. pylori is recorded as 95%.

For `CCOC(=O)C(C)=O` [ethyl pyruvate, Ethyl pyruvate], the dissociation constant (Kd) at Tlp11-LBD [2] (read-out: Kd of Tlp11-LBD binding) is 2360 ± 170 µM.

`O=CO` [formate]: the chemotactic response entry in assay [3] is recorded as “attractant response”; in assay [4], “attractive response”; in assay [6], “no chemotaxis”.
